Legend:
Set-up in all cases: species or system human
psoriasis = experiment: In vivo activity of 4-PB against psoriasis (patient case); conditions: received 4-PB for colon carcinoma, after four months of treatment, lasting after sessions of 4-PB
From the text: A patient with generalized psoriasis, who has been treated for years with corticoids ointments, received 4-PB for a colon carcinoma.

ulcerative colitis = experiment: In vivo activity of 4-PB against ulcerative colitis (patient case)
tinnitus = experiment: In vivo activity of 4-PB against tinnitus (patient cases); conditions: two male patients with tinnitus lasting more than ten years, after four months of treatment
Experimental: Two male patients with tinnitus, lasting for more than ten years, were treated with 4-PB.

[1] = test system: primary sclerosing cholangitis; experiment: In vivo activity of 4-PB against primary sclerosing cholangitis (patient cases); conditions: two female patients chosen for liver transplant, after 5 months of treatment
Experimental: Two female patients with primary sclerosing cholangitis were treated with 4-PB. Both had recurrent fever and abdominal pains for days. Both were chosen for liver transplant.

[2] = test system: major depressive disorder; experiment: In vivo activity of 4-PB against major depressive disorder (patient cases)
Experimental: Four female patients and one patient with major depressive disorders, some of which suffering from other diseases, were treated with 4-PB.

varicose veins = experiment: In vivo activity of 4-PB against varicose veins (patient case)
Experimental: A patient with breast cancer was treated with 4-PB.

[3] = test system: recurrent vulvo-vaginitis; experiment: In vivo activity of 4-PB against recurrent vulvo-vaginitis (patient cases); conditions: two female patients
Experimental: Two female patients were treated with 4-PB for other reasons (one for cancer and one for depressions).

C[C@@H](NC(=O)CCCc1ccccc1)C(=O)O [4-PB, N-(4-phenylbutanoyl)-D-alanine]
remission of generalized psoriasis (psoriasis): complete remission | response of ulcerative colitis to 4-PB (ulcerative colitis; patient with recurrent episodes of ulcerative colitis): good response | bowel state and symptoms (pain, diarrhea) (ulcerative colitis; patient, after 6 months of treatment): bowels were normal and they had no pain and no diarrhea anymore | tinnitus (tinnitus): tinnitus has disappeared in both cases | symptoms and signs of cholangitis [1]: both were free of symptoms and signs of the underlying cholangitis | depressions ([2]; four female patients and one patient with major depressive disorders): depressions disappeared in three to five months | recurrence of depression ([2]; four female patients and one patient, after disappearance of depressions): No recurrences have been observed | spider veins on both legs (varicose veins; patient with breast cancer treated with 4-PB): remained unchanged | enlarged (varicose) veins on both legs (varicose veins; patient with breast cancer, during therapy with 4-PB): disappearance of the enlarged veins on both legs | recurrence of enlarged veins (varicose veins; patient, in the next 10 years): without a recurrence | presence of vulvo-vaginitis ([3]; after four months of treatment): both were free of vulvo-vaginitis | remission of vulvo-vaginitis after sessions of 4-PB ([3]; even after sessions of 4-PB): complete remission

— patent US20180085333A1, “4-PHENYLBUTYRIC ACID DERIVATIVES” (priority 2015, published 2018)
